In patent publication US20180178031A1, “DENTAL DEVICE AND PHOTODYNAMIC THERAPEUTIC SYSTEM USING SAME” (priority 2016, published 2018):

Legend:
[1] = test system: gram negative (G (−)) bacteria (Aggregatibacter actinomycetemcomitans, Fusobacterium nucleatum, Porphyromonas gingivalis); test: photodynamic therapy bacterial disinfection assay in vitro, G (−) bacteria; assay type: cell-based; conditions: photosensitizer plus infrared laser ray 808 nanometers, irradiating about 5 minutes, in vitro (FIG. 8)
Text: (§1) One group assay represents the different bacterial disinfection by using the photodynamic therapy method in vitro with a specific irradiated wavelength of the light, and the other group assay represents the different bacterial disinfection by using the photodynamic therapy method in vitro with a specific compound X and the specific irradiated wavelength of the light. […] The light is infrared laser ray. The specific irradiated wavelength of the infrared laser ray of is 808 nanometers. The specific compound X is a photosensitizer. The photosensitizer is the indocyanine green dye. The period of irradiating the bacteria is about 5 minutes. The bacteria include gram positive (G (+)) bacteria and gram negative (G (−)) bacteria. The G (+) bacteria include a Streptococcus mutans (S. mutans) and a Streptococcus sobrinus (S. sobrinus). The G (−) bacteria include an Aggregatibacter actinomycetemcomitans (A. actinomycetemcomitans), a Fusobacterium nucleatum (F. nucleatum), and a Porphyromonas gingivalis (P. gingivalis).

[2] = test system: gram positive (G (+)) bacteria (Streptococcus mutans, Streptococcus sobrinus); test: photodynamic therapy bacterial disinfection assay in vitro, G (+) bacteria; assay type: cell-based; conditions: photosensitizer plus infrared laser ray 808 nanometers, irradiating about 5 minutes, in vitro (FIG. 8)
Text: as §1

CC1(C)C(/C=C/C=C/C=C/C=C2\N(CCCCS(=O)(=O)O)c3ccc4ccccc4c3C2(C)C)=[N+](CCCCS(=O)(=O)[O-])c2ccc3ccccc3c21 [compound X, indocyanine green]
percentage growth rate of the bacteria [1]: less than 20% | percentage growth rate of the bacteria [2]: zero
